In general, IC50 refers to the concentration that gives 50% inhibition. A higher IC50 goes with a need for much substance.

For data set [1], the system named is A549 cells. The data set is described as follows: MTT cell viability assay, A549, with or without UV light. The class given is cell-based, human. Particulars: for Ratio of IC50 non-irradiated vs UV-irradiated: A549; for Cytotoxic effect: A549, 10 μM and 1 μM, without UV; for Cytotoxic effect / IC50: MTT; for IC50: Homo sapiens, light or radiation study, 72 h. As for the experimental part: Cells. Commercially available from American Type Culture Collection (ATCC), human epithelial lung adenocarcinoma A549 (ATCC® CCL-185™) and human normal lung fibroblast WI-38 (ATCC® CCL-75™) were grown according to supplier’s conditions, namely in Dulbecco Modified Eagle’s Medium (DMEM, Sigma Aldrich, St. Louis, MO, USA) supplemented with 10% of fetal bovine serum (FBS, Sigma Aldrich, USA). Cells were incubated in the cell incubator (Thermo Fischer Scientific, Waltham, MA, USA) at 37 °C and 5% CO2 in a humidified atmosphere.
Cell viability assay. In order to obtain a 10 mM stock solution chemical compounds (2M, 1, and 1M) were sterilely diluted in an appropriate volume of dimethyl sulfoxide solution (DMSO, Gram-Mol, Zagreb, Croatia). Solutions were kept in the dark and stored at 4 °C. The cytotoxic effects of each compound were assayed on A549 and WI-38 cells. […] Briefly, cells were seeded in 96-well tissue culture plates and 24 h later treated with 2M, 1, or 1M in the concentration range of 10–0.1 μM. Cells treated with the same dilutions of DMSO represented the control, while cells treated only with DMEM (10% FBS) represented the negative control. After 72 h, the media was removed, MTT solution was added into each well, and the plate was incubated (37 °C, 5% CO2) for 3 h. The resulting MTT-formazan products were dissolved using DMSO, and their absorbance at 600 nm was measured using a microplate reader.
For determining the effect of UV exposure, cells were seeded on two plates and treated with working solutions of the respective compounds as previously described. Plates were incubated (37 °C, 5% CO2) for 90 min, allowing the compounds to enter the cells. Then, one plate was exposed to UV light (Luzchem reactor, 350 nm, 8 lamps, in total 8 W, dose 50.6 mWm^−2; ~18 cm lamp to cell-plate) for 5 min, 3 days in a row at the same time each day, while the other plate was left in the cell incubator in the dark and served as a control.
In general terms: Formazan colour is commonly taken as a measure of viable cells.

The target in a further data set is BSA (Bos taurus, UniProt P02769). The data set is described as follows: Fluorimetric titration with BSA, Scatchard equation. The format is binding, bovine. Particulars: I = 0.05 M; for Kd: pH 7, sodium cacodylate buffer, read-out: Binding constant logKs BSA (converted). As for the experimental part:
Experiments were conducted in an aqueous buffer solution (pH = 7.0 or pH= 5.0, I = 0.05 M, sodium cacodylate buffer). For the UV-Vis spectra were used Varian Cary 100 Bio spectrometer, for fluorescence spectra we used the Varian Cary Eclipse fluorimeter and for CD spectra we used the JASCO J815 spectropolarimeter, all conducted at 25.0 °C using appropriate quartz cuvettes (path length: 1 cm).
As the pharmacokinetic properties of small molecules often depend on a binding affinity toward transport proteins (such as serum albumin), we performed fluorimetric titrations with BSA. The emission of both 1M and 2M (Supplementary Information, Figures S15 and S16), was strongly quenched, with compound 2M showing a lower affinity in comparison to ds-DNA/RNA, while the affinity of 1M was similar to that towards ds-DNA/RNA (Table 2).
Processing of fluorimetric titrations by means of the Scatchard equation [56, 57] yielded binding constants (Table 2). […] Affinities of 1 and 2 toward BSA were the same at both pH values, supporting the conclusion that neutral forms of 1 and 2 were bound.

The test system of data set [2] is A549 cells. The data set is described as follows: Cell size (FSC) and complexity (SSC) by flow cytometry. The format is cell-based, human. The note with it: A549, 10 µM, UV irradiation. How it is done: To corroborate further the observed phenomena, we determined morphology changes in 2M-, 1-, and 1M-treated A549 cells after exposing them to UV light. Morphology changes were determined by flow cytometry, which allows the assessment of cell size (FSC) and complexity (SSC). […] This increase was the most pronounced in cells treated with 1 and 1M.
For orientation: In flow cytometry, cells or beads pass a laser one at a time.

The subject of data set [3] is A549 cells. The data set is described as follows: Detection of total ROS (DCF, flow cytometry). Particulars: A549, 10 µM. The class given is cell-based, human. As for the experimental part:
Detection of total ROS. For detecting total ROS, A549 cells were seeded in 12-well tissue culture plates and 24 h after were treated with a 10 μM working solution of the respective compound and incubated for 90 min (37 °C, 5% CO2), allowing the compound to enter to cells. The same dilution of DMSO served as a control, while H2O2 (0.002%) was used as a positive control. One plate was irradiated with UV light (350 nm) for 5 min, and was analysed immediately after UV exposure. The plate that was not irradiated with UV light served as the control, and was incubated in the cell incubator (37°C, 5% CO2) during the whole experiment. Subsequently, cells were washed with PBS, trypsinised, resuspended with cold PBS supplemented with 10% FBS and centrifuged for 5 min (RT, 1100 g). Cell pellets were resuspended and washed again, but this time with cold PBS supplemented with 1% FBS and centrifuged for 5 min (RT, 1100 g). After the second washing, cell pellets were resuspended in 5 μM 2′,7′–dichloro-fluorescin diacetate (H2DCFDA, Sigma, USA) which is converted to dichlorofluorescein (DCF) in contact with ROS. Unstained cells were resuspended in PBS supplemented with 1% FBS. Cells were then analysed by flow cytometry using FACSCalibur (BD Biosciences, San Jose, CA, USA).

Another data set concerns pUC19 plasmid DNA. The data set is described as follows: Plasmid electrophoresis, photoinduced DNA nuclease activity. The format is biochemical. The note with it: 100 μM compound; for Photo-induced nuclease activity on plasmid DNA: 1 μg pUC19, UV light 15 and 45 s; for Effect on plasmid DNA forms without UV irradiation: 1 μg pUC19, non-irradiated. How it is done: Plasmid electrophoresis. For assessing the photoinduced DNA nuclease activity of compounds 2M, 1 and 1M, 1 μg of pUC19 plasmid DNA (2686 pb) was incubated with a 100 μM solution of the respective compound, and exposed to UV light (using a xenon arc lamp, Oriel, Stratford, CT, USA) for 15 and 45 s. After the treatment plasmid samples were run on 0.5% agarose gel, and stained with Midori Green DNA binding dye (Nippon Genetics, Düren, Germany). Non-irradiated samples containing compounds and plasmid DNA served as a control for assessing the photoinduced nuclease activity of the compound. Plasmid without the compound was irradiated with UV light under the same conditions to determine whether UV light itself induces changes in plasmid DNA forms (linear and supercoiled form). After gel electrophoresis, plasmid DNA forms were visualised on a UVITEC Imager (Cleaver Scientific, Rugby, UK).

The mark [4] stands for this setting: A549, UV-irradiated (350 nm, 5 min, 3 days in a row).

BSA, sequence (P02769 25-607): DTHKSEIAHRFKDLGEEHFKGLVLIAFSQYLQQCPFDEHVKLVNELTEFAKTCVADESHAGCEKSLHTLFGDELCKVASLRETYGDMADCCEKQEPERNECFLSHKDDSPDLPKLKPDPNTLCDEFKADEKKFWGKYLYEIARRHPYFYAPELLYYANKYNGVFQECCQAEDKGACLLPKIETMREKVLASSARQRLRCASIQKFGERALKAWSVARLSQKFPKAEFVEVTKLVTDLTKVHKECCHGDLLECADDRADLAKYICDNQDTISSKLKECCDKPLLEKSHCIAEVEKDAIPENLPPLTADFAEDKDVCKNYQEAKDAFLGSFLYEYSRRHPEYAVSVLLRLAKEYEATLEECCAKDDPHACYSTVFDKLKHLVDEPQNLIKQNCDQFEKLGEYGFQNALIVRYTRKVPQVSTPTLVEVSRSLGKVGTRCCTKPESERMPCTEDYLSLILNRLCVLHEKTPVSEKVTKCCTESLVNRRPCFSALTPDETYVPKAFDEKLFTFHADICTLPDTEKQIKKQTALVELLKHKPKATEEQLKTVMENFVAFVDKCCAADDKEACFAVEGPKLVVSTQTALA

With `C[n+]1ccc(-c2cc3ccc4cccc5ccc(c2)c3c45)cc1` [1M, 2-para-N-methylpyridinium pyrene], the “Ratio of IC50 non-irradiated vs UV-irradiated” value (from here on “Ratio of IC50 non-irradiated”) in the data set on A549 cells [1] is given as 15. Moreover, the Cytotoxic effect entry in the data set on A549 cells [1] is on record as “considerable cytotoxic effects”. Also, the IC50 is 100 nM with A549 cells [1] (setting [4]) and 1500 nM in the data set with A549 cells [1] (A549, non-irradiated). Moreover, the Kd at BSA was 3980 nM. In addition, the “Cell size (FSC)” value in the data set with A549 cells [2] is on record as “increase in cell size”. Further, the “Intracellular ROS production” value was “immediate and strong increase in ROS production” in the data set with A549 cells [3] (UV light 350 nm 5 min); “induced the production of intracellular ROS” in the data set on A549 cells [3] (kept in dark). For the same molecule, the “Photo-induced nuclease activity on plasmid DNA” value (shortened to “Photo-induced nuclease activity”) in the data set on pUC19 plasmid DNA was “strong photo-induced nuclease activity”. Moreover, the “Effect on plasmid DNA forms without UV irradiation” value in the data set with pUC19 plasmid DNA was “nicking of the plasmid DNA”.
As for `C[n+]1ccc(-c2cc3ccc4cc(-c5cc[n+](C)cc5)cc5ccc(c2)c3c45)cc1` [2M], in the data set on A549 cells [1], the “Ratio of IC50 non-irradiated” value is listed as “four times” and the Cytotoxic effect entry is listed as “considerable cytotoxic effects”. This molecule returned an IC50 in the data set with A549 cells [1] (setting [4]) of 2000 nM. Besides, the IC50 in the data set with A549 cells [1] (A549, non-irradiated) was 8000 nM. The Kd on BSA is 126 nM. In addition, in the data set on A549 cells [2], the “Cell size (FSC)” value is given as “increase in cell size”. Also, in the data set on A549 cells [3] (UV light 350 nm 5 min), the “Intracellular ROS production” value was “immediate and strong increase in ROS production”. Further, in the data set on pUC19 plasmid DNA, the “Photo-induced nuclease activity” value was “strong photo-induced nuclease activity” and the “Effect on plasmid DNA forms without UV irradiation” value is “unwinding of supercoiled DNA even without UV irradiation”.
Regarding `c1cc2ccc3cc(-c4ccncc4)cc4ccc(c1)c2c34` [compound 1], in the data set on A549 cells [1], the “Ratio of IC50 non-irradiated” value is given as “four times” and the Cytotoxic effect entry is given as “considerable cytotoxic effects”. In addition, half-maximal inhibition in the data set on A549 cells [1] (setting [4]) (IC50) required 2000 nM. In addition, it took 8000 nM to reach half-maximal inhibition in the data set on A549 cells [1] (A549, non-irradiated) (IC50). Also, the “Binding constant logKs BSA” value on BSA (pH 5, sodium cacodylate buffer) stood at 5.5. For the same molecule, the Kd at BSA is 3160 nM. Besides, the “Cell size (FSC)” value in the data set on A549 cells [2] is “increase in cell size”. Further, the “Intracellular ROS production” value in the data set on A549 cells [3] (UV light 350 nm 5 min) was “immediate and strong increase in ROS production”. Moreover, the “Photo-induced nuclease activity” value with pUC19 plasmid DNA is given as “did not show any influence on DNA plasmid forms”.

For the origin of these results see PMC9696974 (Pharmaceutics, 2022).
